Source: the NIST ThermoML archive (doi:10.1021/acs.jced.6b00794)
± gives the expanded uncertainty stated by the source.

test: refractive index (Na D-line) (dimensionless); details: 293.15 K; 101.33 kPa; Liquid; Standard Abbe refractometry

Row | Structure (SMILES) | refractive index
1 | CC(=O)O [acetic acid] | 1.3717 ± 0.0024
2 | CCO [ethanol] | 1.3616 ± 0.0024
3 | C=COC(C)=O [vinyl acetate] | 1.3926 ± 0.0024
4 | O [water] | 1.3328 ± 0.0024
